Measured values reported in the supplement of paper PMC5908809.

Legend:
Assay in all cases: relative IC50 (inflection point of fitted viability curve, relative to fitted max inhibition); higher = less sensitive
Conditions in all cases: 72 h
NK-92 (IL-2 2.5 ng/mL) = system: NK-92 (IL-2 2.5 ng/mL)
Description: (§1)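 Drug sensitivity and resistance testing: 5 concentrations over a 10,000-fold range, 72 h at 37 °C, viability by CellTiter-Glo normalised to DMSO and benzethonium chloride controls. IC50 is the inflection point of a logistic fit (min fixed at 0, max fitted), so it is relative to the fitted maximal inhibition. Kept only where fitted max inhibition is at least 50%.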

NK-YS (IL-2 2.5 ng/mL) = system: NK-YS (IL-2 2.5 ng/mL)
Description: as §1

SNK-6 (IL-2 2.5 ng/mL) = system: SNK-6 (IL-2 2.5 ng/mL)
Description: as §1

DERL-7 (IL-2 2.5 ng/mL) = system: DERL-7 (IL-2 2.5 ng/mL)
Description: as §1

KAI3 (IL-2 2.5 ng/mL) = system: KAI3 (IL-2 2.5 ng/mL)
Description: as §1

[1] = system: normal primary NK cells, pool 3 (3 donors) (IL-2 2.5 ng/mL)
Description: as §1

IMC-1 (IL-2 20 ng/mL) = system: IMC-1 (IL-2 20 ng/mL)
Description: as §1

KHYG-1 (IL-2 2.5 ng/mL) = system: KHYG-1 (IL-2 2.5 ng/mL)
Description: as §1

NKL (IL-2 2.5 ng/mL) = system: NKL (IL-2 2.5 ng/mL)
Description: as §1

YT (IL-2 2.5 ng/mL) = system: YT (IL-2 2.5 ng/mL)
Description: as §1

[2] = system: normal primary NK cells, pool 1 (3 donors) (IL-2 2.5 ng/mL)
Description: as §1

[3] = system: normal primary NK cells, pool 2 (3 donors) (IL-2 2.5 ng/mL)
Description: as §1

[4] = system: normal primary NK cells, pool 1 (3 donors), resting (IL-2 0 ng/mL)
Description: as §1

| SMILES | relative IC50 (NK-92 (IL-2 2.5 ng/mL)) [nM] | relative IC50 (NK-YS (IL-2 2.5 ng/mL)) [nM] | relative IC50 (SNK-6 (IL-2 2.5 ng/mL)) [nM] | relative IC50 (DERL-7 (IL-2 2.5 ng/mL)) [nM] | relative IC50 (KAI3 (IL-2 2.5 ng/mL)) [nM] | relative IC50 [1] [nM] | relative IC50 (IMC-1 (IL-2 20 ng/mL)) [nM] | relative IC50 (KHYG-1 (IL-2 2.5 ng/mL)) [nM] | relative IC50 (NKL (IL-2 2.5 ng/mL)) [nM] | relative IC50 (YT (IL-2 2.5 ng/mL)) [nM] | relative IC50 [2] [nM] | relative IC50 [3] [nM] | relative IC50 [4] [nM] |
| --- | --- | --- | --- | --- | --- | --- | --- | --- | --- | --- | --- | --- | --- |
| CCc1nc(-c2cccc(C)c2)c(-c2ccnc(NC(=O)c3ccccc3)c2)s1 [TAK-715] | 2170 | 1570 | 3250 | – | – | – | – | – | – | – | – | – | – |
| CNC(=O)c1ccc(N2C(=S)N(c3ccc(C#N)c(C(F)(F)F)c3)C(=O)C2(C)C)cc1F [Enzalutamide] | – | – | – | > 10000 | > 10000 | > 10000 | – | – | – | – | – | – | – |
| Cc1sc2c(c1C)C(c1ccc(Cl)cc1)=N[C@@H](CC(=O)Nc1ccc(O)cc1)c1nnc(C)n1-2 [OTX015] | – | 229 | 43 | 48.1 | 437 | 804 | 630 | 145 | 75.2 | 241 | 171 | 393 | – |
| C[C@H]1C[C@@H]2[C@H]([C@@H](O)C[C@@]3(C)[C@H]2CC[C@]3(O)C(=O)CO)[C@@]2(C)C=CC(=O)C=C12 [Methylprednisolone] | – | – | – | 22.1 | – | 88.8 | > 10000 | 197 | 13.3 | 164 | 33.4 | 41.7 | 9.66 |
| COc1cc(Nc2ncc(F)c(Nc3ccc4c(n3)NC(=O)C(C)(C)O4)n2)cc(OC)c1OC [Tamatinib] | 2180 | 1650 | 3590 | – | 536 | 2800 | 4100 | 1340 | 992 | 2580 | – | – | > 10000 |
| CCN(CC)CCCC(C)Nc1c2ccc(Cl)cc2nc2ccc(OC)cc12 (configuration not stated) [Mepacrine] | – | – | – | – | – | 1550 | 1500 | – | – | – | – | 1220 | – |
| CCc1c2c(nc3ccc(OC(=O)N4CCC(N5CCCCC5)CC4)cc13)-c1cc3c(c(=O)n1C2)COC(=O)[C@]3(O)CC [Irinotecan] | 140 | 282 | 260 | 597 | 146 | – | 347 | 152 | 73 | 577 | – | – | – |
| CN(C)C(=O)c1cc2cnc(Nc3ccc(N4CCNCC4)cn3)nc2n1C1CCCC1 [NVP-LEE011] | – | – | – | – | – | – | – | 1060 | – | – | 2200 | – | 630 |
| NC(=O)c1ccc(I)c([N+](=O)[O-])c1 [Iniparib] | – | – | – | – | – | – | – | – | – | – | 1620 | – | 1360 |
| CC1(C)CCC(CN2CCN(c3ccc(C(=O)NS(=O)(=O)c4ccc(NCC5CCOCC5)c([N+](=O)[O-])c4)c(Oc4cnc5[nH]ccc5c4)c3)CC2)=C(c2ccc(Cl)cc2)C1 [Venetoclax] | 1730 | 1450 | 34.8 | 211 | 7.28 | – | – | 1280 | 115 | 415 | 859 | – | 8.76 |
| S=c1[nH]cnc2nc[nH]c12 [Mercaptopurine] | 393 | 725 | 137 | – | 2160 | – | 1590 | 1420 | – | 1410 | – | – | > 10000 |
| CO[C@H]1C[C@@H]2CC[C@@H](C)[C@@](O)(O2)C(=O)C(=O)N2CCCC[C@H]2C(=O)O[C@H]([C@H](C)C[C@@H]2CC[C@@H](OC(=O)C(C)(CO)CO)[C@H](OC)C2)CC(=O)[C@H](C)/C=C(\C)[C@@H](O)[C@@H](OC)C(=O)[C@H](C)C[C@H](C)/C=C/C=C/C=C/1C [Temsirolimus] | – | 0.31 | 0.26 | 0.57 | 0.5 | – | – | 1.32 | 0.09 | 0.61 | – | – | – |
| O=C(c1ccc(/C=C/c2n[nH]c3ccccc23)cc1)N1CCNCC1 [KW-2449] | – | – | 687 | 920 | – | > 2500 | > 2500 | 807 | – | – | – | – | – |
| CCn1c(-c2nonc2N)nc2c(C#CC(C)(C)O)ncc(OC[C@H]3CCCNC3)c21 | – | – | – | 269 | – | 1870 | – | – | – | – | 2160 | 2190 | 1730 |
| CNC(=O)c1cccc2cc(Oc3ccnc4cc(OCC5(N)CC5)c(OC)cc34)ccc12 [Lucitanib] | 1910 | 2000 | 3720 | – | – | – | – | 2000 | – | 3440 | – | – | – |
| CC(=O)c1c(C)c2cnc(Nc3ccc(N4CCNCC4)cn3)nc2n(C2CCCC2)c1=O [Palbociclib] | 1780 | 413 | – | 1380 | 3090 | 3430 | 2620 | 279 | 1550 | – | 3580 | 2850 | 4040 |
| CC(=O)N(O)CCCCCNC(=O)CCC(=O)N(O)CCCCCNC(=O)CCC(=O)N(O)CCCCCN [Deferoxamine] | – | – | – | – | – | 1580 | 3210 | – | – | – | – | – | – |
| CCOc1cc2ncc(C#N)c(Nc3ccc(OCc4ccccn4)c(Cl)c3)c2cc1NC(=O)/C=C/CN(C)C [Neratinib] | 206 | – | – | 216 | – | – | – | – | – | – | – | – | 364 |
| COc1cccc2c1c(O)c(C(=O)N(C)c1ccc(C(F)(F)F)cc1)c(=O)n2C [Tasquinimod] | – | – | – | > 10000 | – | > 10000 | – | – | – | – | – | > 10000 | – |
| CCn1c(-c2nonc2N)nc2cnc(Oc3cccc(NC(=O)c4ccc(OCCN5CCOCC5)cc4)c3)cc21 | 287 | – | 50.4 | 63.4 | 1280 | 1610 | – | 1120 | 1070 | – | 1540 | 1970 | 1660 |
| CCS(=O)(=O)c1cccc(-c2cc(C(=O)NC3CCN(C)CC3)c(C)c3[nH]c4ncc(C)cc4c23)c1 [TAK-901] | – | 30.8 | 135 | 50.2 | 116 | – | 116 | 208 | 105 | – | 303 | – | – |
| Cc1cnc(NC(=O)Nc2cc(Br)c(C)cc2OC[C@@H]2CNCCO2)cn1 [Rabusertib] | 172 | 279 | 179 | – | 203 | – | – | 197 | 192 | – | > 1000 | – | – |
| O=C(Nc1ccncc1)C(=O)c1cn(Cc2ccc(Cl)cc2)c2ccccc12 [Indibulin] | 48.5 | 77.7 | 2.97 | 922 | 45 | – | 339 | 103 | 85.6 | 131 | > 10000 | – | – |
| O=C(O)C(=O)O.[NH-][C@@H]1CCCC[C@H]1[NH-].[Pt+2] [Oxaliplatin] | – | – | – | – | – | 9130 | 9490 | – | – | – | – | 9290 | – |
| O=C(Nc1ccc2[nH]nc(-c3ccncc3)c2c1)[C@@H]1CCN(CC(=O)N2CCN(c3ccc(-c4ncccn4)cc3)CC2)C1 | – | – | – | 382 | – | – | > 10000 | 784 | 516 | – | – | – | 1670 |
| Cc1cc(C(C)Nc2ccccc2)c2nc(N3CCOCC3)cc(=O)n2c1 (configuration not stated) [TGX-221] | – | – | – | – | – | – | > 10000 | – | – | – | – | – | 1450 |
| COc1cc2ncnc(Nc3ccc(F)c(Cl)c3)c2cc1OCCCN1CCOCC1 [Gefitinib] | 2660 | – | – | 3010 | 1710 | – | – | 2270 | 1770 | 2390 | – | – | 3700 |
| OC[C@H]1O[C@@H](n2cnc3c2N=CNC[C@H]3O)C[C@@H]1O [Pentostatin] | – | – | – | – | > 10000 | – | – | – | > 10000 | – | – | – | – |
| CN(C)c1nc(N(C)C)nc(N(C)C)n1 [Altretamine] | > 10000 | – | – | – | – | – | – | > 10000 | – | > 10000 | – | – | – |
| CNC(=O)c1cc(Oc2ccc(NC(=O)Nc3cc(C(C)(C)C)nn3-c3ccc4ncccc4c3)c(F)c2)ccn1 [Rebastinib] | – | – | – | – | – | > 1000 | – | – | – | – | > 1000 | > 1000 | – |
